Legend:
[1] = tested on: LPS stimulated human PBMCs; assay: LPS stimulated human PBMC, IL-1β and IL-6 ELISA; type: cell-based
Method in brief: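 Human PBMC (1-2 healthy donors), 150,000 cells/well, treated with test agents at 1,000 nM down to 1 nM or 0.2 nM, in duplicate. LPS at 1 ng/ml added immediately after free payload or 4 h after conjugates; IL-1β and IL-6 in supernatants measured by ELISA.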

FKBP5 = FKBP5 transcription in peritoneal resident macrophages (PRM) and spleen cells after in vivo treatment; parameters: species or system hVISTA mice; conditions: linker payloads as anti-VISTA conjugates; for FKBP5 induction in splenic cells (conclusions): day 1, 7, 14
[2] = tested on: peritoneal resident macrophages (PRM); assay: In vivo treatment/ex vivo PRM activation, TNFα and IL-6 in supernatant; parameters: species or system hVISTA mice; conditions: for controlling cytokine response in PRM when dosed 14 days early (conclusions) / potency in PRM cytokine model when dosed 7 days early (conclusions): linker/payloads as anti-VISTA conjugates; for preventing ex vivo induction of TNFα and IL-6 in PRM: Experiment 9: linker payloads as conjugates, 7 days post 0.2 mg/Kg of GC payload, supernatant 24h
Experimental: Based thereon we developed a model to allow us to evaluate long-term anti-inflammatory impact of ADC on specific target populations, such as PRMs. […] In the absence of GC treatment, after 2h PRMs become highly activated as shown by increases in cytokine production. […] The objective of these studies was to evaluate the efficacy and pharmacodynamic range of INX human VISTA antibodies conjugated to a glucocorticoid payload as compared to free Dex.
After euthanasia, mice were injected in the peritoneal cavity with 7 ml of PBS/0.5% BSA/2 mM EDTA. After a brief massage of the peritoneum, a small incision was performed and the peritoneal lavage collected. PRM were isolated using negative selection (Miltenyi kit, ref 130-110-434). Spleen were dissected and dissociated mechanically; monocytes were isolated using […] (Stem Cell, EasySep™ Mouse CD11b Positive Selection Kit II).
PRMs were resuspended in RPMI 1640 with 10% FBS, 10 mM Hepes, Penicillin/Streptomycin and glutamine and 100,000 cells were plated per well in a 96-well tissue culture plate. Supernatants were collected at 2 and 24h post plating and stored at −80° C. […]
• BioLegend (cat #430904) ELISA MAX Deluxe Set Mouse TNF-α • BioLegend (cat #431304) ELISA MAX Deluxe Set Mouse IL-6
ELISAs were conducted following the manufacturer's included protocol.

## C[C@]12C=CC(=O)C=C1CC[C@@H]1[C@@H]2[C@@H](O)C[C@@]2(C)[C@H]1C[C@H]1O[C@@H](c3ccc(OC4CC5(CC(NC(=O)[C@H](CCC(=O)O)NC(=O)CNC(=O)CBr)C5)C4)cc3)O[C@]12C(=O)CO (stereo partly drawn) [INX A4, (S)-4-(2-(2-bromoacetamido)acetamido)-5-((6-(4-((6aR,6bS,7S,8aS,8bS,10R,11aR,12aS,12bS)-7-hydroxy-8b-(2-hydroxyacetyl)-6a,8a-dimethyl-4-oxo-2,4,6a,6b,7,8,8a,8b,11a,12,12a,12b-dodecahydro-1H-naphtho[2′,1′:4,5]indeno[1,2-d][1,3]dioxol-10-yl)phenoxy)spiro[3.3]heptan-2-yl)amino)-5-oxopentanoic acid]
[1]
  potency of conjugated linker payloads over INX J (conclusions): enhanced potency
FKBP5
  FKBP5 induction when dosed 14 days early (conclusions): still display significant potency when dosed 14 days early in regard to FKBP5 induction
  FKBP5 induction in splenic cells (conclusions): only demonstrate significant induction at day 1, and 7

## C[C@]12C=CC(=O)C=C1CC[C@@H]1[C@@H]2[C@@H](O)C[C@@]2(C)[C@H]1C[C@H]1O[C@@H](c3ccc(OC4CC5(CC(NC(=O)[C@H](CCC(=O)O)NC(=O)CNC(=O)CBr)C5)C4)cc3F)O[C@]12C(=O)CO (stereo partly drawn) [INX A5, (S)-4-(2-(2-bromoacetamido)acetamido)-5-((6-(3-fluoro-4-((6aR,6bS,7S,8aS,8bS,10R,11aR,12aS,12bS)-7-hydroxy-8b-(2-hydroxyacetyl)-6a,8a-dimethyl-4-oxo-2,4,6a,6b,7,8,8a,8b,11a,12,12a,12b-dodecahydro-1H-naphtho[2′,1′:4,5]indeno[1,2-d][1,3]dioxol-10-yl)phenoxy)spiro[3.3]heptan-2-yl)amino)-5-oxopentanoic acid]
[1]
  potency of conjugated linker payloads over INX J (conclusions): enhanced potency
FKBP5
  FKBP5 induction when dosed 14 days early (conclusions): still display significant potency when dosed 14 days early in regard to FKBP5 induction
[2]
  controlling cytokine response in PRM when dosed 14 days early (conclusions): significant potency in controlling cytokine response in PRM when dosed 14 days early

## C[C@]12C=CC(=O)C=C1CC[C@@H]1[C@@H]2[C@@H](O)C[C@@]2(C)[C@H]1C[C@H]1O[C@@H](c3ccc(Cc4cccc(NC(=O)[C@H](CCC(=O)O)NC(=O)CNC(=O)CBr)c4)cc3)O[C@]12C(=O)COP(=O)(O)O [INX L]
FKBP5
  FKBP5 induction in splenic cells (conclusions): only demonstrate significant induction at day 1, and 7
[2]
  controlling cytokine response in PRM when dosed 14 days early (conclusions): significant potency in controlling cytokine response in PRM when dosed 14 days early

## C[C@]12C=CC(=O)C=C1CC[C@@H]1[C@@H]2[C@@H](O)C[C@@]2(C)[C@H]1C[C@H]1O[C@@H](C34CC(Cc5cccc(NC(=O)[C@H](CCC(=O)O)NC(=O)CNC(=O)CBr)c5)(C3)C4)O[C@]12C(=O)CO [INX O, (S)-4-(2-(2-bromoacetamido)acetamido)-5-((3-((3-((6aR,6bS,7S,8aS,8bS,10R,11aR,12aS,12bS)-7-hydroxy-8b-(2-hydroxyacetyl)-6a,8a-dimethyl-4-oxo-2,4,6a,6b,7,8,8a,8b,11a,12,12a,12b-dodecahydro-1H-naphtho[2′,1′:4,5]indeno[1,2-d][1,3]dioxol-10-yl)bicyclo[1.1.1]pentan-1-yl)methyl)phenyl)amino)-5-oxopentanoic acid]
[2]
  preventing ex vivo induction of TNFα and IL-6 in PRM: little and non-significant impact on the PRM cytokine response
  potency in PRM cytokine model when dosed 7 days early (conclusions): very limited and non-significant potency when conjugated to INX201

## C[C@H](NC(=O)CBr)C(=O)N[C@@H](C)C(=O)NC12CC(Cc3ccc([C@@H]4O[C@@H]5C[C@H]6[C@@H]7CCC8=CC(=O)C=C[C@]8(C)[C@H]7[C@@H](O)C[C@]6(C)[C@]5(C(=O)CO)O4)cc3)(C1)C2 [INX R, (S)-2-(2-bromoacetamido)-N—((S)-1-((3-(4-((6aR,6bS,7S,8aS,8bS,10R,11aR, 12aS,12bS)-7-hydroxy-8b-(2-hydroxyacetyl)-6a,8a-dimethyl-4-oxo-2,4,6a,6b,7,8,8a,8b,11a,12,12a,12b-dodecahydro-1H-naphtho[2′,1′:4,5]indeno[1,2-d][1,3]dioxol-10-yl)benzyl)bicyclo[1.1.1]pentan-1-yl)amino)-1-oxopropan-2-yl) propanamide]
[2]
  potency in PRM cytokine model when dosed 7 days early (conclusions): show similar potency when dosed 7 days early

## C[C@]12C=CC(=O)C=C1[C@@H](F)C[C@H]1[C@@H]3C[C@H]4O[C@@H](c5ccc(CC67CC(NC(=O)[C@H](CCC(=O)O)NC(=O)CNC(=O)CBr)(C6)C7)cc5)O[C@@]4(C(=O)CO)[C@@]3(C)C[C@H](O)[C@@]12F [INX S, (S)-4-(2-(2-bromoacetamido)acetamido)-5-((3-(4-((2S,6aS,6bR,7S,8aS,8bS, 10R,11aR,12aS,12bS)-2,6b-difluoro-7-hydroxy-8b-(2-hydroxyacetyl)-6a,8a-dimethyl-4-oxo-2,4,6a,6b,7,8,8a,8b,11a,12,12a,12b-dodecahydro-1H-naphtho[2′,1′:4,5]indeno[1,2-d][1,3]dioxol-10-yl)benzyl)bicyclo[1.1.1]pentan-1-yl)amino)-5-oxopentanoic acid]
FKBP5
  FKBP5 induction when dosed 14 days early (conclusions): still display significant potency when dosed 14 days early in regard to FKBP5 induction
  FKBP5 induction in splenic cells (conclusions): Significant FKBP5 induction is seen at day 1, 7, and 14 in splenic cells
[2]
  preventing ex vivo induction of TNFα and IL-6 in PRM: remarkable long-term potency in controlling cytokine responses
  controlling cytokine response in PRM when dosed 14 days early (conclusions): significant potency in controlling cytokine response in PRM when dosed 14 days early
  potency in PRM cytokine model when dosed 7 days early (conclusions): remarkably more potent than payloads INX P and INX R when dosed 7 days early

## C[C@]12C=CC(=O)C=C1CC[C@@H]1[C@@H]2[C@@H](O)C[C@@]2(C)[C@H]1C[C@H]1O[C@@H](c3ccc(CC45CC(NC(=O)[C@H](CCC(=O)O)NC(=O)CNC(=O)CBr)(C4)C5)cc3)O[C@]12C(=O)COP(=O)(O)O [INX T, (S)-4-(2-(2-bromoacetamido)acetamido)-5-((3-(4-((6aR,6bS,7S,8aS,8bS,10R,11aR,12aS,12bS)-7-hydroxy-6a,8a-dimethyl-4-oxo-8b-(2-(phosphonooxy)acetyl)-2,4,6a,6b,7,8,8a,8b,11a,12,12a,12b-dodecahydro-1H-naphtho[2′,1′:4,5]indeno[1,2-d][1,3]dioxol-10-yl)benzyl)bicyclo[1.1.1]pentan-1-yl)amino)-5-oxopentanoic acid]
FKBP5
  FKBP5 induction when dosed 14 days early (conclusions): still display significant potency when dosed 14 days early in regard to FKBP5 induction
  FKBP5 induction in splenic cells (conclusions): Significant FKBP5 induction is seen at day 1, 7, and 14 in splenic cells
[2]
  controlling cytokine response in PRM when dosed 14 days early (conclusions): significant potency in controlling cytokine response in PRM when dosed 14 days early

## C[C@]12C=CC(=O)C=C1CC[C@@H]1[C@@H]2[C@@H](O)C[C@@]2(C)[C@H]1C[C@H]1O[C@@H](c3ccc(CC45CC(NC(=O)[C@H](CCCCN)NC(=O)CNC(=O)CBr)(C4)C5)cc3)O[C@]12C(=O)CO [INX W, (S)-6-amino-2-(2-(2-bromoacetamido)acetamido)-N-(3-(4-((6aR,6bS,7S,8aS,8bS,10R,11aR,12aS,12bS)-7-hydroxy-8b-(2-hydroxyacetyl)-6a,8a-dimethyl-4-oxo-2,4,6a,6b,7,8,8a,8b,11a,12,12a,12b-dodecahydro-1H-naphtho[2′,1′:4,5]indeno[1,2-d][1,3]dioxol-10-yl)benzyl)bicycle[1.1.1]pentan-1-yl) hexanamide]
FKBP5
  FKBP5 induction when dosed 14 days early (conclusions): still display significant potency when dosed 14 days early in regard to FKBP5 induction
[2]
  preventing ex vivo induction of TNFα and IL-6 in PRM: remarkable long-term potency in controlling cytokine responses
  potency in PRM cytokine model when dosed 7 days early (conclusions): remarkably more potent than payloads INX P and INX R when dosed 7 days early

Source: patent publication US20250108119A1, “NOVEL STEROID PAYLOADS, STEROID LINKERS, ADCs CONTAINING AND USE THEREOF” (IMMUNEXT, INC., priority 2021, published 2025)
